Measured values: US11951109B2, “EZH2 inhibitors for treating lymphoma” (Epizyme, Inc., priority 2015, dated 2024)

Assays:
[1] = system: SUDHL5; test: Combination of EPZ-6438 and other therapeutic agents (4+3 model), SUDHL5; settings: WT EZH2 GCB
[2] = system: WSU-DLCL2; test: Combination of EPZ-6438 and other therapeutic agents (4+3 model), WSU-DLCL2; settings: Mutant EZH2 GCB; EPZ-6438 4 days then co-treatment 3 days (4+3 model)
[3] = system: KARPAS-422; test: Combination of EPZ-6438 and other therapeutic agents (4+3 model), KARPAS-422; settings: Mutant EZH2 GCB
[4] = system: RC-K8; test: Combination of EPZ-6438 and other therapeutic agents (4+3 model), RC-K8; settings: WT EXH2 ABC
[5] = system: SU-DHL-6; test: Combination of EPZ-6438 and other therapeutic agents (4+3 model), SU-DHL-6; settings: Mutant EZH2 GCB
[6] = system: DOHH2; test: Combination of EPZ-6438 and other therapeutic agents (4+3 model), DOHH2; assay type: cell-based; settings: WT EZH2 GCB
[7] = system: OCI-LY19; test: Combination of EPZ-6438 and other therapeutic agents (4+3 model), OCI-LY19; settings: WT EZH2 GCB; 4+3 model
[8] = system: SUDHL2; test: Combination of EPZ-6438 and other therapeutic agents (4+3 model), SUDHL2; settings: WT EXH2 ABC
[9] = system: Farage; test: Combination of EPZ-6438 and other therapeutic agents (4+3 model), Farage; settings: WT EZH2 GCB
[10] = system: OCI-LY3; test: Combination of EPZ-6438 and other therapeutic agents (4+3 model), OCI-LY3; settings: WT EXH2 ABC
[11] = system: TMD8; test: Combination of EPZ-6438 and other therapeutic agents (4+3 model), TMD8; settings: WT EXH2 ABC
[12] = system: SU-DHL-10; test: Combination of EPZ-6438 and other therapeutic agents (4+3 model), SU-DHL-10; settings: Mutant EZH2 GCB
[13] = system: OCI-LY7; test: Combination of EPZ-6438 and other therapeutic agents (4+3 model), OCI-LY7; settings: WT EZH2 GCB
[14] = system: HT; test: Combination of EPZ-6438 and other therapeutic agents (4+3 model), HT; settings: WT EZH2 GCB

| Compound | combination effect with EPZ-6438, SUDHL5 [1] | combination effect with EPZ-6438, WSU-DLCL2 [2] | combination effect with EPZ-6438, KARPAS-422 [3] | combination effect with EPZ-6438, SU-DHL-6 [5] | combination effect with EPZ-6438, SU-DHL-10 [12] | other results |
| --- | --- | --- | --- | --- | --- | --- |
| CC(C)NC[C@@H](C(=O)N1CCN(c2ncnc3c2[C@H](C)C[C@H]3O)CC1)c1ccc(Cl)cc1 [GDC0068, Ipatasertib] | S | S | S |  |  |  |
| CCCS(=O)(=O)Nc1ccc(F)c(C(=O)c2c[nH]c3ncc(-c4ccc(Cl)cc4)cc23)c1F [Vemurafenib] |  | ADD. |  |  |  |  |
| CCOC(=O)CCNc1cc(N2CCc3ccccc3CC2)nc(-c2ccccn2)n1 [GSK J4] |  | ADD. |  | ADD. |  | combination effect with EPZ-6438, RC-K8 [4]: ADD.; combination effect with EPZ-6438, DOHH2 [6]: ADD.; combination effect with EPZ-6438, OCI-LY19 [7]: ADD.; combination effect with EPZ-6438, SUDHL2 [8]: ADD. |
| CC(=O)Nc1cccc(-n2c(=O)n(C3CC3)c(=O)c3c(Nc4ccc(I)cc4F)n(C)c(=O)c(C)c32)c1 [Trametinib] | S | S | S | S | S | combination effect with EPZ-6438, Farage [9]: S; combination effect with EPZ-6438, OCI-LY3 [10]: S; combination effect with EPZ-6438, TMD8 [11]: S; combination effect with EPZ-6438, OCI-LY7 [13]: S |
| N#CC[C@H](C1CCCC1)n1cc(-c2ncnc3[nH]ccc23)cn1 [Ruxolitinib] |  |  |  |  | S | combination effect with EPZ-6438, TMD8 [11]: S |
| CC[C@H](Nc1ncnc2[nH]cnc12)c1nc2cccc(F)c2c(=O)n1-c1ccccc1 [Idelalisib] | S | S | S | S | S | combination effect with EPZ-6438, Farage [9]: S; combination effect with EPZ-6438, RC-K8 [4]: S; combination effect with EPZ-6438, OCI-LY3 [10]: S; combination effect with EPZ-6438, HT [14]: S; combination effect with EPZ-6438, TMD8 [11]: S; combination effect with EPZ-6438, OCI-LY7 [13]: S |
| CC1(C)CCC(CN2CCN(c3ccc(C(=O)NS(=O)(=O)c4ccc(NCC5CCOCC5)c([N+](=O)[O-])c4)c(Oc4cnc5[nH]ccc5c4)c3)CC2)=C(c2ccc(Cl)cc2)C1 [ABT-199] |  | S | S | ADD. | ADD. | combination effect with EPZ-6438, RC-K8 [4]: S; combination effect with EPZ-6438, OCI-LY3 [10]: S; combination effect with EPZ-6438, OCI-LY19 [7]: S |
| Nc1cccc2c1CN(C1CCC(=O)NC1=O)C2=O (centres unmarked) [Lenalidomide] |  |  |  |  |  | combination effect with EPZ-6438, RC-K8 [4]: S |
| CN(Cc1cnc2nc(N)nc(N)c2n1)c1ccc(C(=O)N[C@@H](CCC(=O)O)C(=O)O)cc1 [Methotrexate] |  | ANTAG. |  |  |  | combination effect with EPZ-6438, RC-K8 [4]: ANTAG.; combination effect with EPZ-6438, DOHH2 [6]: ANTAG.; combination effect with EPZ-6438, OCI-LY19 [7]: ANTAG.; combination effect with EPZ-6438, SUDHL2 [8]: ANTAG. |
| Cc1sc2c(c1C)C(c1ccc(Cl)cc1)=N[C@@H](CC(=O)OC(C)(C)C)c1nnc(C)n1-2 [JQ1] |  | S | S | S |  | combination effect with EPZ-6438, RC-K8 [4]: S; combination effect with EPZ-6438, OCI-LY19 [7]: S; combination effect with EPZ-6438, SUDHL2 [8]: S |
| CN(C)C(=O)c1cc2cnc(Nc3ccc(N4CCNCC4)cn3)nc2n1C1CCCC1 [Ribociclib] | S | S | S |  |  |  |
| Cc1nc(Nc2ncc(C(=O)Nc3c(C)cccc3Cl)s2)cc(N2CCN(CCO)CC2)n1 [Dasatinib] | S | S |  |  | S | combination effect with EPZ-6438, TMD8 [11]: S |
| OG-L002 |  |  |  |  |  | combination effect with EPZ-6438, SUDHL2 [8]: ANTAG. |
| Rituximab: therapeutic agent combined with EPZ-6438; component of R-CHOP |  | S |  | S |  |  |
| CCn1cc(-c2ccnc3[nH]c(-c4cccc(CN(C)C)c4)cc23)c(-c2ccc(NC(=O)N(C)C)cc2)n1 [GSK1070916] |  | S |  |  | ADD. |  |
| COc1ncc(-c2ccc3nccc(-c4ccnnc4)c3c2)cc1NS(=O)(=O)c1ccc(F)cc1F [GSK2126458, Omipalisib] | S | S | S |  |  |  |
| COc1cc(Nc2ncc3c(n2)-c2ccc(Cl)cc2C(c2c(F)cccc2OC)=NC3)ccc1C(=O)O [Alisertib] | ADD. | ADD. |  |  | ADD. |  |
| COC1=CC(c2cc3ccccc3[nH]2)=N/C1=C\c1[nH]c(C)cc1C [Obatoclax] |  | ADD. | S | ADD. | ADD. |  |
| CC(C)C[C@H](NC(=O)[C@H](Cc1ccccc1)NC(=O)c1cnccn1)B(O)O [Velcade] |  | ADD. |  | ADD. | ADD. |  |
| Cc1cnc(Nc2ccc(OCCN3CCCC3)cc2)nc1Nc1cccc(S(=O)(=O)NC(C)(C)C)c1 [Fedratinib] |  |  |  |  |  | combination effect with EPZ-6438, SUDHL2 [8]: ADD. |
| CC1(C)CCC(c2ccc(Cl)cc2)=C(CN2CCN(c3ccc(C(=O)NS(=O)(=O)c4ccc(N[C@H](CCN5CCOCC5)CSc5ccccc5)c(S(=O)(=O)C(F)(F)F)c4)cc3)CC2)C1 [Navitoclax] |  | S | S | S | S | combination effect with EPZ-6438, RC-K8 [4]: S; combination effect with EPZ-6438, OCI-LY3 [10]: S; combination effect with EPZ-6438, OCI-LY7 [13]: S; combination effect with EPZ-6438, OCI-LY19 [7]: S |
| COc1cc([C@@H]2c3cc4c(cc3[C@@H](O[C@@H]3O[C@@H]5CO[C@@H](C)O[C@H]5[C@H](O)[C@H]3O)[C@H]3COC(=O)[C@H]23)OCO4)cc(OC)c1O [Etoposide] | S | S | S |  |  |  |
| CCn1c(-c2nonc2N)nc2c(C#CC(C)(C)O)ncc(OC[C@H]3CCCNC3)c21 [GSK690693] | S | S | S |  |  |  |
| CC(=O)c1c(C)c2cnc(Nc3ccc(N4CCNCC4)cn3)nc2n(C2CCCC2)c1=O [Palbociclib] | S | S | S |  |  |  |
| CNC(=O)c1cc(Oc2ccc(NC(=O)Nc3ccc(Cl)c(C(F)(F)F)c3)cc2)ccn1 [Sorafenib] |  | ADD. |  |  |  |  |
| Cn1cc(C2=C(c3cn(C4CCN(Cc5ccccn5)CC4)c4ccccc34)C(=O)NC2=O)c2ccccc21 [Enzastaurin] | ADD. | ADD. |  |  | S |  |
